# Test results as given in ChEMBL document CHEMBL1201861, “Genomics of Drug Sensitity in Cancer screening data, Wellcome Trust Sanger Institute”.
# Assays:
# Assay in all cases: cells
# HH = type: functional, cell-based; conditions: Homo sapiens
# Description: SANGER: Inhibition of human HH cell growth in a cell viability assay.
# UACC-62 = type: functional, cell-based, Homo sapiens; conditions: Homo sapiens, UACC-62;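 also: growth inhibition of human UACC-62 cells, read out by a cell viability assay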
# Description: SANGER: Inhibition of human UACC-62 cell growth in a cell viability assay.
# DJM-1 = type: functional, cell-based, Homo sapiens; conditions: Homo sapiens, DJM-1;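 also: growth inhibition of human DJM-1 cells, read out by a cell viability assay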
# Description: SANGER: Inhibition of human DJM-1 cell growth in a cell viability assay.
# HDLM-2 = type: functional, cell-based; conditions: Homo sapiens;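 also: cell viability assay measuring suppression of HDLM-2 proliferation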
# Description: SANGER: Inhibition of human HDLM-2 cell growth in a cell viability assay.
# MEL-HO = type: functional, cell-based, Homo sapiens; conditions: Homo sapiens, MEL-HO
# Description: SANGER: Inhibition of human MEL-HO cell growth in a cell viability assay.
# KYSE-450 = type: functional, cell-based; conditions: Homo sapiens;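 also: cell growth inhibition measured by a viability assay in human KYSE-450 cells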
# Description: SANGER: Inhibition of human KYSE-450 cell growth in a cell viability assay.
# PSN1 = type: functional, cell-based, Homo sapiens; conditions: Homo sapiens, PSN1;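 also: suppression of growth of human PSN1 cells, read out by a cell viability assay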
# Description: SANGER: Inhibition of human PSN1 cell growth in a cell viability assay.
# ATN-1 = type: functional, cell-based; conditions: Homo sapiens;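 also: growth inhibition of human ATN-1 cells, read out with a cell viability assay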
# Description: SANGER: Inhibition of human ATN-1 cell growth in a cell viability assay.
# NCI-H1651 = type: functional, cell-based, Homo sapiens; conditions: Homo sapiens, NCI-H1651;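 also: Read-out is a cell viability assay, with IC50 expressing inhibition of NCI-H1651 cell growth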
# Description: SANGER: Inhibition of human NCI-H1651 cell growth in a cell viability assay.
# NCI-H810 = type: functional, cell-based, Homo sapiens; conditions: Homo sapiens, NCI-H810;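 also: IC50 reflects inhibition of cancer cell line growth, read out with a cell viability assay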
# Description: SANGER: Inhibition of human NCI-H810 cell growth in a cell viability assay.
# NCI-H1770 = type: functional, cell-based; conditions: Homo sapiens;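 also: growth inhibition of NCI-H1770 cells determined with a viability readout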
# Description: SANGER: Inhibition of human NCI-H1770 cell growth in a cell viability assay.
# TE-5 = type: functional, cell-based, Homo sapiens; conditions: Homo sapiens, TE-5;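 also: inhibition of cell growth, read out by a cell viability assay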
# Description: SANGER: Inhibition of human TE-5 cell growth in a cell viability assay.
# COLO-824 = type: functional, cell-based, Homo sapiens; conditions: Homo sapiens, COLO-824
# Description: SANGER: Inhibition of human COLO-824 cell growth in a cell viability assay.
# L-428 = type: functional, cell-based; conditions: Homo sapiens
# Description: SANGER: Inhibition of human L-428 cell growth in a cell viability assay.
# NCI-H2342 = type: functional, cell-based; conditions: Homo sapiens;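 also: growth inhibition of the cancer cell line, determined with a cell viability assay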
# Description: SANGER: Inhibition of human NCI-H2342 cell growth in a cell viability assay.
# KY821 = type: functional, cell-based; conditions: Homo sapiens;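 also: growth inhibition of human KY821 cells, read out by a cell viability assay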
# Description: SANGER: Inhibition of human KY821 cell growth in a cell viability assay.
# EW-11 = type: functional, cell-based, Homo sapiens; conditions: Homo sapiens, EW-11;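 also: growth inhibition of human EW-11 cells, measured with a cell viability assay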
# Description: SANGER: Inhibition of human EW-11 cell growth in a cell viability assay.
# NY = type: functional, cell-based, Homo sapiens; conditions: Homo sapiens, NY
# Description: SANGER: Inhibition of human NY cell growth in a cell viability assay.
# OCI-AML2 = type: functional, cell-based; conditions: Homo sapiens;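 also: growth inhibition of OCI-AML2 cells, read out with a cell viability assay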
# Description: SANGER: Inhibition of human OCI-AML2 cell growth in a cell viability assay.
# DU-145 = type: functional, cell-based, Homo sapiens; conditions: Homo sapiens, DU-145
# Description: SANGER: Inhibition of human DU-145 cell growth in a cell viability assay.
# LS-513 = type: functional, cell-based, Homo sapiens; conditions: Homo sapiens, LS-513
# Description: SANGER: Inhibition of human LS-513 cell growth in a cell viability assay.
# NCI-H1648 = type: functional, cell-based, Homo sapiens; conditions: Homo sapiens, NCI-H1648;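 also: cell viability assay measuring inhibition of NCI-H1648 cell growth, from the Sanger screening data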
# Description: SANGER: Inhibition of human NCI-H1648 cell growth in a cell viability assay.
# ES5 = type: functional, cell-based, Homo sapiens; conditions: Homo sapiens, ES5;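 also: growth inhibition of human ES5 cells, read out by a cell viability assay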
# Description: SANGER: Inhibition of human ES5 cell growth in a cell viability assay.
# UMUC3 = type: functional, cell-based, Homo sapiens; conditions: Homo sapiens, UMUC3;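 also: growth inhibition of human UM-UC-3 cells, read out with a cell viability assay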
# Description: SANGER: Inhibition of human UM-UC-3 cell growth in a cell viability assay.
# BB30-HNC = type: functional, cell-based, Homo sapiens; conditions: Homo sapiens, BB30-HNC;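 also: growth inhibition of the cultured cell line, read out by a cell viability assay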
# Description: SANGER: Inhibition of human BB30-HNC cell growth in a cell viability assay.
# NCI-H1993 = type: functional, cell-based, Homo sapiens; conditions: Homo sapiens, NCI-H1993;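 also: growth inhibition of the cancer cell line, assessed with a cell viability assay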
# Description: SANGER: Inhibition of human NCI-H1993 cell growth in a cell viability assay.
# ASPC1 = type: functional, cell-based, Homo sapiens; conditions: Homo sapiens, ASPC1;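 also: growth inhibition of AsPC-1 cells, read out with a cell viability assay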
# Description: SANGER: Inhibition of human AsPC-1 cell growth in a cell viability assay.
# VMRC-RCZ = type: functional, cell-based; conditions: Homo sapiens;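 also: growth inhibition measured with a cell viability assay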
# Description: SANGER: Inhibition of human VMRC-RCZ cell growth in a cell viability assay.
# DB = type: functional, cell-based; conditions: Homo sapiens
# Description: SANGER: Inhibition of human DB cell growth in a cell viability assay.
# A 172 = type: functional, cell-based, Homo sapiens; conditions: Homo sapiens, A 172;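 also: growth inhibition of A172 cells, measured with a cell viability readout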
# Description: SANGER: Inhibition of human A172 cell growth in a cell viability assay.
# OVCAR-8 = type: functional, cell-based, Homo sapiens; conditions: Homo sapiens, OVCAR-8;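 also: growth inhibition of human OVCAR-8 cells, read out by a cell viability assay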
# Description: SANGER: Inhibition of human OVCAR-8 cell growth in a cell viability assay.
# LS-411N = type: functional, cell-based, Homo sapiens; conditions: Homo sapiens, LS-411N
# TK-10 = type: functional, cell-based, Homo sapiens; conditions: Homo sapiens, TK-10;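 also: growth inhibition of TK-10 cells, read out in a cell viability assay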
# Description: SANGER: Inhibition of human TK10 cell growth in a cell viability assay.
# RPMI-2650 = type: functional, cell-based, Homo sapiens; conditions: Homo sapiens, RPMI-2650
# Description: SANGER: Inhibition of human RPMI-2650 cell growth in a cell viability assay.
# UACC-257 = type: functional, cell-based, Homo sapiens; conditions: Homo sapiens, UACC-257
# Description: SANGER: Inhibition of human UACC-257 cell growth in a cell viability assay.
# EFO-27 = type: functional, cell-based, Homo sapiens; conditions: Homo sapiens, EFO-27;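 also: growth inhibition of EFO-27 cells, read out with a cell viability assay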
# Description: SANGER: Inhibition of human EFO-27 cell growth in a cell viability assay.
# SAOS-2 = type: functional, cell-based, Homo sapiens; conditions: Homo sapiens, SAOS-2;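 also: growth inhibition of human Saos-2 cells determined by a cell viability assay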
# Description: SANGER: Inhibition of human Saos-2 cell growth in a cell viability assay.
# HuO-3N1 = type: functional, cell-based, Homo sapiens; conditions: Homo sapiens, HuO-3N1;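 also: cell viability readout used to measure how strongly compounds suppress proliferation of human HuO-3N1 cells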
# Description: SANGER: Inhibition of human HuO-3N1 cell growth in a cell viability assay.
# LNCaP-Clone-FGC = type: functional, cell-based, Homo sapiens; conditions: Homo sapiens, LNCaP-Clone-FGC
# Description: SANGER: Inhibition of human LNCaP-Clone-FGC cell growth in a cell viability assay.
# JVM-3 = type: functional, cell-based; conditions: Homo sapiens;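 also: growth inhibition of human JVM-3 cells, read out with a cell viability assay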
# Description: SANGER: Inhibition of human JVM-3 cell growth in a cell viability assay.
# TE-9 = type: functional, cell-based, Homo sapiens; conditions: Homo sapiens, TE-9;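 also: cell growth inhibition, measured with a cell viability readout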
# Description: SANGER: Inhibition of human TE-9 cell growth in a cell viability assay.
# CAL-72 = type: functional, cell-based, Homo sapiens; conditions: Homo sapiens, CAL-72;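 also: cell viability assay measuring inhibition of proliferation in the CAL-72 cell line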
# Description: SANGER: Inhibition of human CAL-72 cell growth in a cell viability assay.
# COLO-800 = type: functional, cell-based, Homo sapiens; conditions: Homo sapiens, COLO-800;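 also: growth inhibition of COLO-800 cells, read out with a cell viability assay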
# Description: SANGER: Inhibition of human COLO-800 cell growth in a cell viability assay.
# MHH-PREB-1 = type: functional, cell-based; conditions: Homo sapiens;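 also: cell viability assay measuring inhibition of proliferation of human MHH-PREB-1 cells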
# Description: SANGER: Inhibition of human MHH-PREB-1 cell growth in a cell viability assay.
# HCC1187 = type: functional, cell-based, Homo sapiens; conditions: Homo sapiens, HCC1187;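 also: growth inhibition of HCC1187 cells, read out with a cell viability assay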
# Description: SANGER: Inhibition of human HCC1187 cell growth in a cell viability assay.
# FaDu = type: functional, cell-based, Homo sapiens; conditions: Homo sapiens, FaDu;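 also: cell viability readout of growth inhibition in FaDu cells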
# Description: SANGER: Inhibition of human FADU cell growth in a cell viability assay.
# SNU-387 = type: functional, cell-based, Homo sapiens; conditions: Homo sapiens, SNU-387
# Description: SANGER: Inhibition of human SNU-387 cell growth in a cell viability assay.
# RVH-421 = type: functional, cell-based, Homo sapiens; conditions: Homo sapiens, RVH-421
# Description: SANGER: Inhibition of human RVH-421 cell growth in a cell viability assay.
# NOMO-1 = type: functional, cell-based; conditions: Homo sapiens;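 also: growth inhibition of human NOMO-1 cells measured by a cell viability assay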
# Description: SANGER: Inhibition of human NOMO-1 cell growth in a cell viability assay.
# K562 = type: functional, cell-based; conditions: Homo sapiens
# Description: SANGER: Inhibition of human K-562 cell growth in a cell viability assay.
# MZ7-mel = type: functional, cell-based, Homo sapiens; conditions: Homo sapiens, MZ7-mel;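 also: growth inhibition of human MZ7-mel cells, measured by a cell viability assay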
# Description: SANGER: Inhibition of human MZ7-mel cell growth in a cell viability assay.
smiles,measurement,setting,value
COc1cc([C@@H]2c3cc4c(cc3[C@@H](O[C@@H]3O[C@@H]5CO[C@@H](C)O[C@H]5[C@H](O)[C@H]3O)[C@H]3COC(=O)[C@H]23)OCO4)cc(OC)c1O [ETOPOSIDE],IC50,HH,4440 nM
same,IC50,UACC-62,2920 nM
same,IC50,DJM-1,203 nM
same,IC50,HDLM-2,13800 nM
same,IC50,MEL-HO,729 nM
same,IC50,KYSE-450,3690 nM
same,IC50,PSN1,> 16000 nM
same,IC50,ATN-1,204 nM
same,IC50,NCI-H1651,> 16000 nM
same,IC50,NCI-H810,1580 nM
same,IC50,NCI-H1770,3870 nM
same,IC50,TE-5,1180 nM
same,IC50,COLO-824,> 16000 nM
same,IC50,L-428,2990 nM
same,IC50,NCI-H2342,555 nM
same,IC50,KY821,> 16000 nM
same,IC50,EW-11,4770 nM
same,IC50,NY,4490 nM
same,IC50,OCI-AML2,559 nM
same,IC50,DU-145,591 nM
same,IC50,LS-513,> 16000 nM
same,IC50,NCI-H1648,> 16000 nM
same,IC50,ES5,> 16000 nM
same,IC50,UMUC3,1150 nM
same,IC50,BB30-HNC,64.2 nM
same,IC50,NCI-H1993,> 16000 nM
same,IC50,ASPC1,> 16000 nM
same,IC50,VMRC-RCZ,1970 nM
same,IC50,DB,6530 nM
same,IC50,A 172,8650 nM
same,IC50,OVCAR-8,1090 nM
same,IC50,LS-411N,925 nM
same,IC50,TK-10,7490 nM
same,IC50,RPMI-2650,572 nM
same,IC50,UACC-257,> 16000 nM
same,IC50,EFO-27,3360 nM
same,IC50,SAOS-2,> 16000 nM
same,IC50,HuO-3N1,7710 nM
same,IC50,LNCaP-Clone-FGC,> 16000 nM
same,IC50,JVM-3,> 16000 nM
same,IC50,TE-9,55.9 nM
same,IC50,CAL-72,> 16000 nM
same,IC50,COLO-800,2100 nM
same,IC50,MHH-PREB-1,> 16000 nM
same,IC50,HCC1187,> 16000 nM
same,IC50,FaDu,1280 nM
same,IC50,SNU-387,> 16000 nM
same,IC50,RVH-421,> 16000 nM
same,IC50,NOMO-1,2190 nM
same,IC50,K562,> 16000 nM
same,IC50,MZ7-mel,4300 nM
Cc1cnc(-c2cnc(NCCNc3ccc(C#N)cn3)nc2-c2ccc(Cl)cc2Cl)[nH]1 [LADUVIGLUSIB],IC50,HH,> 2560 nM
same,IC50,UACC-62,> 2560 nM
same,IC50,DJM-1,> 2560 nM
same,IC50,HDLM-2,> 2560 nM
same,IC50,MEL-HO,> 2560 nM
same,IC50,KYSE-450,> 2560 nM
same,IC50,PSN1,> 2560 nM
same,IC50,ATN-1,> 2560 nM
same,IC50,NCI-H1651,> 2560 nM
same,IC50,NCI-H810,> 2560 nM
same,IC50,NCI-H1770,> 2560 nM
same,IC50,TE-5,> 2560 nM
same,IC50,COLO-824,> 2560 nM
same,IC50,L-428,> 2560 nM
same,IC50,NCI-H2342,> 2560 nM
same,IC50,KY821,> 2560 nM
same,IC50,EW-11,> 2560 nM
same,IC50,NY,> 2560 nM
same,IC50,OCI-AML2,> 2560 nM
same,IC50,DU-145,> 2560 nM
same,IC50,LS-513,> 2560 nM
same,IC50,NCI-H1648,> 2560 nM
same,IC50,ES5,> 2560 nM
same,IC50,UMUC3,> 2560 nM
same,IC50,BB30-HNC,> 2560 nM
same,IC50,NCI-H1993,> 2560 nM
same,IC50,ASPC1,> 2560 nM
same,IC50,VMRC-RCZ,> 2560 nM
same,IC50,DB,> 2560 nM
same,IC50,A 172,> 2560 nM
same,IC50,OVCAR-8,> 2560 nM
same,IC50,LS-411N,> 2560 nM
same,IC50,TK-10,> 2560 nM
same,IC50,RPMI-2650,> 2560 nM
same,IC50,UACC-257,> 2560 nM
same,IC50,EFO-27,> 2560 nM
same,IC50,SAOS-2,> 2560 nM
same,IC50,HuO-3N1,> 2560 nM
same,IC50,LNCaP-Clone-FGC,> 2560 nM
same,IC50,JVM-3,> 2560 nM
same,IC50,TE-9,> 2560 nM
same,IC50,CAL-72,> 2560 nM
same,IC50,COLO-800,> 2560 nM
same,IC50,MHH-PREB-1,> 2560 nM
same,IC50,HCC1187,> 2560 nM
same,IC50,FaDu,> 2560 nM
same,IC50,SNU-387,> 2560 nM
same,IC50,RVH-421,> 2560 nM
same,IC50,NOMO-1,> 2560 nM
same,IC50,K562,> 2560 nM
same,IC50,MZ7-mel,> 2560 nM
